pEC50, pKd: −log10 of the molar value. The source made the active and inactive calls. No cut-off for these calls is given here.
What was measured:
[1] = biological target: T1, 14-3-3 protein zeta/delta (Homo sapiens) (UniProt P63104); assay: Competitive binding affinity to 14-3-3 zeta (unknown origin) at 200 uM in presence of 1 uM synaptopodin by SPR analysis
T1 sequence (whole entry): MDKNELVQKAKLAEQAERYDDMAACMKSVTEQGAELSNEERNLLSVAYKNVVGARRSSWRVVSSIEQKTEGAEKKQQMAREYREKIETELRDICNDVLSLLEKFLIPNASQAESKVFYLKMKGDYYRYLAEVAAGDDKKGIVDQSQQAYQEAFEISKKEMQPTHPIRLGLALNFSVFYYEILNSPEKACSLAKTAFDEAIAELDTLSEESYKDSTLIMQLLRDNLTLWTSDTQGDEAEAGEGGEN

[2] = biological target: T2, 14-3-3 protein zeta/delta (Homo sapiens, UniProt P63104); assay: Binding affinity to 14-3-3 zeta (unknown origin) assessed as 14-3-3 zeta-synaptopodin interaction by fluorescence polarization assay
T2 sequence (P63104 whole entry): T1 sequence (whole entry)

[3] = biological target: T2, 14-3-3 protein zeta/delta; assay: Binding affinity to 14-3-3 zeta (unknown origin) by SPR analysis
[4] = biological target: T1, 14-3-3 protein zeta/delta (Homo sapiens); assay: Competitive binding affinity to 14-3-3 zeta (unknown origin) at 1000 uM in presence of 1 uM synaptopodin by SPR analysis
[5] = biological target: T1, 14-3-3 protein zeta/delta (Homo sapiens); assay: Competitive binding affinity to 14-3-3 zeta (unknown origin) at 1000 uM in presence of 25 uM synaptopodin by SPR analysis
[6] = biological target: T1, 14-3-3 protein zeta/delta (Homo sapiens); assay: Binding affinity to 14-3-3 zeta (unknown origin) assessed as half life for dissociation by SPR analysis
[7] = biological target: T1, 14-3-3 protein zeta/delta (Homo sapiens); assay: Binding affinity to 14-3-3 zeta (unknown origin) assessed as association rate constant by SPR analysis
[8] = biological target: T1, 14-3-3 protein zeta/delta (Homo sapiens); assay: Binding affinity to 14-3-3 zeta (unknown origin) assessed as response unit at 3.1 to 50 uM by SPR analysis
[9] = biological target: T1, 14-3-3 protein zeta/delta (Homo sapiens); assay: Competitive binding affinity to 14-3-3 zeta (unknown origin) at 25 uM in presence of 1 uM synaptopodin by SPR analysis
[10] = biological target: T1, 14-3-3 protein zeta/delta (Homo sapiens); assay: Binding affinity to 14-3-3 zeta (unknown origin) assessed as dissociation rate constant by SPR analysis

Row | Activity [1] | pEC50 [2] | pKd [3] | Activity [4] | Activity [5] | T1/2 [6] [s] | Ka [7] | RUmax [8] | Activity [9] | Kdiss [10] | SMILES
1 | Active | 3.92 | 3.00 | Active | Active |  |  |  |  |  | O=C(N/N=C/c1cccc(Cl)c1Cl)c1ccccc1P(=O)(O)O
2 |  |  | 4.80 |  |  | 17 | 2.6 ×10³ /M/s | 4.6 | Active | 4.1 ×10⁻² /s | O=C(N/N=C/c1cccc(Br)c1)c1cc2c(s1)CCCC2
3 |  |  | 4.82 |  |  | 80 | 5.8 ×10² /M/s | 4.5 | Active | 8.7 ×10⁻³ /s | O=C(N/N=C/c1cccc(Cl)c1Cl)c1cc2c(s1)CCCC2
